Key:
[1] = test system: adenosine uptake in HEK293 cells; experiment: Adenosine uptake inhibitory activity in HEK293 cells ([3H]adenosine uptake); type: cell-based; details: Homo sapiens, 1 min, [3H]adenosine uptake relative to 100% of control, HEK293 cells
Procedure: A test was conducted according to the method of Leung et al. [Biochemical Pharmacology, Vol. 70, pp. 355-362 (2005)]. HEK293 cells (ATCC, Registration No. CRL-1537) were subcultured in a Dulbecco's modified Eagle's medium (manufactured by Invitrogen Corporation) containing 10% of fatal calf serum in a CO2 incubator using a poly-L-lysine-coated 10-cm dish (manufactured by Asahi Techno Glass Corporation). The cultured cells were seeded in a poly-L-lysine-coated 24-well plate (manufactured by Asahi Techno Glass Corporation) and cultured until the cells become confluent. […] After incubation at room temperature for 15 minutes, 0.2 mL of a Na^+-free buffer containing 100 nmol/L of [^3H] adenosine (manufactured by GE Health Care Bioscience Corporation) and each compound at each of 50 nmol/L and 500 nmol/L was added to each well. After 1 minute, the reaction solution was removed with an aspirator, and the wells were washed twice with 0.5 mL of ice-cooled PBS (phosphate-buffered saline). Then, 0.5 mL of PBS containing 5% Triton X-100 was added to each well, and the cells were scraped with a scraper. The solution in each well was homogenized by passing through a 20 G injection needle ten times and transferred to a scintillation vial containing 4 mL of clear sol (manufactured by Nacalai Tesque Inc.). Further, the wells were washed with 0.5 mL of PBS containing 5% Triton X-100, and the washing solution was added to the same vial. After sufficient agitation, radioactivity was measured using a liquid scintillation counter (Aloka Co., Ltd., LSC-3500). A relative value to 100% of an uptake of a control was indicated by percentage.

[2] = test system: restraint stress-induced defecation; experiment: Action on restraint stress-induced defecation; type: in vivo, male Wistar rats; details: 10 mg/kg p.o. 1 hour before restraint stress; measured 1 hour after stress initiation; rats, n=10; control of each sub-table 1.06-1.71 g
Procedure: An experiment was carried out according to the method of Kishibayashi et al. [Japanese Journal of Pharmacology, Vol. 69, No. 4, pp. 495-502 (1993)]. In the experiment, male Wistar rats aged 6 to 7 weeks (supplied from Charles River Laboratories Japan, Inc.) were used. […] The rats were lightly anesthetized with diethyl ether, and the thoracic trunk and the forelimbs were wrapped with a tape to produce mild stress. One hour after stress initiation, the wet weight of fecal pellets was measured. Each drug solution was orally administered 1 hour before restraint stress. A test compound was suspended at a concentration of 2 mg/mL in an aqueous solution of 0.5 w/v % methyl cellulose 400 cP and orally administered at a volume of 5 mL/kg (at a dose of 10 mg/kg). In a control, an aqueous solution of 0.5 w/v % methyl cellulose 400 cP was administered. Ten rats were used in each group. […] YM060, a serotonin 5-HT3 receptor antagonist [The Journal of Pharmacology and Experimental Therapeutics, Vol. 259, No. 2, pp. 815-819 (1991), Astellas Pharma. Inc., online, internet (URL: […].com/jp/companry/news/2006/pdf/060131.pdf)], which is being applied as a therapeutic agent for irritable bowel syndrome, was administered at a dose of 0.1 mg/kg.

[3] = test system: capsaicin-induced visceral pain; experiment: Action on capsaicin-induced visceral pain model; type: in vivo, male ddY mice; details: doses of 3 and 30 mg/kg p.o. 30 minutes before 0.1% capsaicin into the colon; mice, n=10; 60 minutes
Procedure: It has been reported that a visceral pain is induced by the administration of capsaicin into the colon [Pain, Vol. 92, No. 3, pp. 335-342 (2001)].
A suspension of Compound 1-1 was prepared with an agate mortar using 0.5 w/v % MC.
Capsaicin (Sigma-Aldrich) was dissolved in a physiological saline solution containing 10% ethanol (Kanto Chemical co., Ltd.) and 10% polyoxyethylene (20) sorbitan monooleate (Tween 80, Wako Pure Chemical Industries, Ltd.), and the resultant solution was used. A test compound was orally administered in a volume of 10 mL/kg, and MC was administered to a control group in the same volume.
Male ddY mice (Japan SLC, Inc.) with a body weight of 27 g to 29 g were purchased and used in an experiment. After inspection and acclimation for 2 days or more, the mice showing favorable increases in body weight and no obvious abnormality were used. […]
After the oral administration of Compound 1-1 or 0.5 w/v % MC, each mouse was housed in a cage and left therein. […] Then, each of the mice was placed in an acrylic cage (8 cm in length×8 cm in width×15 cm in height) and recorded with a video (Sony) for 1 hour. After the recording, the following 4 behaviors and symptoms were measured as indexes of capsaicin-induced visceral pain at an interval of 5 minutes. […]

C[C@](O)(C(=O)Nc1cccc2c1C(=O)c1sccc1CS2(=O)=O)C(F)(F)F [Compound 1-1]
activity at 0.05 µM ([1]; 50 nmol/L compound, n=2): 68% | activity at 0.5 µM ([1]; 500 nmol/L compound): 29% | Wet weight of fecal pellets [2]: 0.27 ± 0.06 g | numbers of pain-related behaviors [3]: suppressed the pain-related behaviors

— patent publication US20100267796A1, “THERAPEUTIC AGENT FOR IRRITABLE BOWEL SYNDROME” (KYOWA HAKKO KOGYO CO., LTD., priority 2006, published 2010)
